According to patent US9635854B2, “Controlling red rice with mesotrione” (FMC Corporation, priority 2014, dated 2017):
Read-outs that look alike come from different tables or passages of the source.

Assays:
[1] = system: Rice (Oryza sativa) 'Cybonee'; details: for Percent rice injury Cybonet: in vivo
Experimental: (§1) Rice (Oryza sativa) crop varieties (‘Cybonee’, ‘Jupiter’, and ‘Taggart’) and red rice (Oryza sativa) were planted in 6 inch plastic pots containing sterile top soil. Eight to ten seeds of each species were seeded at 12 o'clock, 3 o'clock, 6 o'clock or 9 o'clock around the pot. The pots were watered after planting. […] The test solutions were applied using a compressed air track spray chamber at 30 gallons per acre using a Teejet 8001E nozzle at 40 PSI, three replicates per test rate. After treatment, the pots were watered lightly and transferred to trays in a greenhouse. After the plants were two inches in height the trays were flooded with water and maintained as such for 14 days. The trays were emptied of water and the pots were maintained by regular watering for 4 more days. At 14, 21 and 28 days after treatment (DAT) the plants were evaluated versus untreated control pots containing the same rice and weeds using a scale of 0% (no control) to 100% (complete plant death).

[2] = system: Rice (Oryza sativa) 'Jupiter'; details: for Percent rice injury Jupiter: in vivo
Experimental: as §1

[3] = system: Rice (Oryza sativa) 'Taggart'; details: for Percent rice injury Taggart: in vivo
Experimental: as §1

red rice (Oryza sativa) [4] = assay: Pre-emergent evaluation on flooded rice, red rice control; type: in vivo; details: 200 g ai/ha; for Percent red rice control: PRE, direct-seeded flooded rice
Experimental: as §1

[5] = system: Rice (Oryza sativa) 'Cybonee'; details: for Percent rice injury Cybonet: Cybonee, Oryza sativa (rice), in vivo
Text: (§2) Rice (Oryza sativa) was planted in 6″ by 10″ fiber flats filled with sterile top soil. Five rows were made in each flat and the three rice varieties (′Cybonee, ‘Jupiter’, and ‘Taggart’) were planted in the center 3 rows and a row of red rice (Oryza sativa) was planted on either end of the flat. The flats were watered after planting. After application flats were placed in the greenhouse and lightly watered. […] The flats were moved to a greenhouse and watered and fertilized routinely. Studies were conducted using randomized complete block design with four replications. In both studies, visual percent red rice control and rice injury were recorded at 14, 21, and 28 days after treatment (DAT), using a scale of 0 (no control/injury) to 100 (complete plant death).

[6] = system: Rice (Oryza sativa) 'Jupiter'; details: for Percent rice injury Jupiter: Oryza sativa (rice), in vivo
Text: as §2

[7] = system: Rice (Oryza sativa) 'Taggart'; details: for Percent rice injury Taggart: Oryza sativa (rice), in vivo
Text: as §2

red rice (Oryza sativa) [8] = assay: Pre-emergent evaluation on dryland rice, red rice control; type: in vivo; details: 200 g ai/ha; for Percent red rice control: PRE, direct-seeded dryland rice
Text: as §2

CC1(C)CON(Cc2ccccc2Cl)C1=O [Clomazone, clomazone]
Percent rice injury Cybonet ([1]; Cybonee, Oryza sativa (rice), 21 days after treatment): 58 A % | Percent rice injury Cybonet ([1]; Cybonee, Oryza sativa (rice), 28 days after treatment): 49 AB % | rice injury, 'Cybonee' ([1]; PRE flooded rice, 200 g ai/ha): injured | Percent rice injury Cybonet [1]: 41 A % | Percent rice injury Jupiter ([2]; Jupiter, Oryza sativa (rice), 21 days after treatment): 86 A % | Percent rice injury Jupiter ([2]; Jupiter, Oryza sativa (rice), 28 days after treatment): 79 A % | rice injury, 'Jupiter' ([2]; PRE flooded rice, 200 g ai/ha): injured | Percent rice injury Jupiter [2]: 60 A % | rice injury, 'Taggart' ([3]; PRE flooded rice, 200 g ai/ha): injured | Percent rice injury Taggart ([3]; Taggart, Oryza sativa (rice), 21 days after treatment): 76 A % | Percent rice injury Taggart ([3]; Taggart, Oryza sativa (rice), 28 days after treatment): 71 A % | Percent rice injury Taggart [3]: 58 A % | red rice control (red rice (Oryza sativa) [4]; PRE flooded rice): failed to control | Percent red rice control (red rice (Oryza sativa) [4]; 14 DAT): 56 C % | Percent red rice control (red rice (Oryza sativa) [4]; 21 DAT): 59 B % | Percent red rice control (red rice (Oryza sativa) [4]; 28 DAT): 52 B % | Percent rice injury Cybonet ([5]; 14 days after treatment): 35 A % | Percent rice injury Cybonet ([5]; 21 days after treatment): 39 A % | Percent rice injury Cybonet ([5]; 28 days after treatment): 43 A % | rice injury, 'Cybonee' ([5]; PRE dryland rice, 200 g ai/ha): injured | Percent rice injury Jupiter ([6]; 14 days after treatment): 31 A % | Percent rice injury Jupiter ([6]; 21 days after treatment): 41 A % | Percent rice injury Jupiter ([6]; 28 days after treatment): 44 A % | rice injury, 'Jupiter' ([6]; PRE dryland rice, 200 g ai/ha): injured | rice injury, 'Taggart' ([7]; PRE dryland rice, 200 g ai/ha): injured | Percent rice injury Taggart ([7]; 14 days after treatment): 40 A % | Percent rice injury Taggart ([7]; 21 days after treatment): 60 A % | Percent rice injury Taggart ([7]; 28 days after treatment): 66 A % | red rice control (red rice (Oryza sativa) [8]; PRE dryland rice): failed to control | Percent red rice control (red rice (Oryza sativa) [8]; 14 DAT): 38 C % | Percent red rice control (red rice (Oryza sativa) [8]; 21 DAT): 50 D % | Percent red rice control (red rice (Oryza sativa) [8]; 28 DAT): 46 C %
